Assays:
[1] = Self-diffusion NMR (SD-NMR); format: physicochemical; conditions: for Diffusion coefficient of EtOH / Diffusion coefficient of PEG400 / Diffusion coefficient of PG / Diffusion coefficient of Solutol / Diffusion coefficient of the Loaded specie: B9A loaded with 1 wt % of the specie
Method: In order to determine the structure of the oil droplets (or micelles) of the microemulsions, self-diffusion NMR analysis was carried out. SD-NMR is able to locate each component within the microemulsion via measurements of its diffusion coefficient.
NMR measurements were performed with a Bruker AVII 500 spectrometer equipped with GREAT 1/10 gradients, a 5 mm BBO and a 5 mm BBI probe, both with a z-gradient coil and with a maximum gradient strength of 0.509 and 0.544 T m^−1, respectively. Diffusion was measured using an asymmetric bipolar longitudinal eddy-current delay (bpLED) experiment, or and asymmetric bipolar stimulated echo (known as one-shot) experiment with convection compensation and an asymmetry factor of 20%, ramping the strongest gradient from 2% to 95% of maximum strength in 32 steps. The spectrum was processed with the Bruker TOPSPIN software. NMR spectra were recorded at 25±0.2° C. The components were identified by their chemical shift in 1H NMR.

[2] = Microemulsion formation/appearance with propofol-like species or another surfactant; format: physicochemical; conditions: B9A loaded with 1 wt % of the specie, FIGS. 5A-5D
Method: The relationship between the surfactant and the propofol with respect to binding in the microemulsion-composition was assessed by loading B9A with 1 wt % of species similar in their structure to propofol.

[3] = B6A microemulsion, Loaded (1 wt % propofol)
[4] = B9A microemulsion, Loaded (1 wt % propofol)
[5] = Formulation with Tween 60, Loaded
[6] = Formulation with Tween 80, Loaded
[7] = Formulation with Tween 60, Unloaded
[8] = Formulation with Tween 80, Unloaded

Row | Molecule | Diffusion coefficient of EtOH [1] | Diffusion coefficient of PEG400 [1] | Diffusion coefficient of PG [1] | Diffusion coefficient of Solutol [1] | Diffusion coefficient of the Loaded specie [1] | Diffusion coefficient of the component [1, 3] | Diffusion coefficient of the component [1, 4] | further results
1 | CC(C)c1cccc(C(C)C)c1N | 94.6 ×10^−11 m^2/sec | 26.2 ×10^−11 m^2/sec | 44.8 ×10^−11 m^2/sec | 1.76 ×10^−11 m^2/sec | 2.15 ×10^−11 m^2/sec | – | – | –
2 | CC(C)c1ccc(O)c(C(C)C)c1 [2,4-isomer] | – | – | – | – | – | – | – | Appearance of the system loaded with the specie [2]: not completely transparent
3 | COc1ccc(O)c(C(C)(C)C)c1 [BHA] | – | – | – | – | – | – | – | Appearance of the system loaded with the specie [2]: not completely transparent
4 | Cc1cc(C(C)(C)C)c(O)c(C(C)(C)C)c1 [BHT] | – | – | – | – | – | – | – | Appearance of the system loaded with the specie [2]: not completely transparent
5 | CCO [Ethanol, ethanol] | – | – | – | – | – | 6.91 × 10^−10 m^2/sec | 9.82 × 10^−10 m^2/sec | Diffusion coefficient of the component ([1]; B6A microemulsion, Unloaded): 8.83 × 10^−10 m^2/sec; Diffusion coefficient of the component ([1]; B9A microemulsion, Unloaded): 7.65 × 10^−10 m^2/sec
6 | CC(C)c1cccc(C(C)C)c1O [Propofol, 2,6-diisopropyl phenol] | 98.2 ×10^−11 m^2/sec | 26.3 ×10^−11 m^2/sec | 84.5 ×10^−11 m^2/sec | 1.50 ×10^−11 m^2/sec | 1.54 ×10^−11 m^2/sec | 1.02 × 10^−11 m^2/sec | 1.54 × 10^−11 m^2/sec | Diffusion coefficient of the component [1, 5]: 1.04 × 10^−11 m^2/sec; Diffusion coefficient of the component [1, 6]: 1.73 × 10^−11 m^2/sec
7 | CC(O)CO (stereo not shown) [Propylene glycol, propylene glycol] | – | – | – | – | – | 5.22 × 10^−10 m^2/sec | 8.45 × 10^−10 m^2/sec | Diffusion coefficient of the component ([1]; B6A microemulsion, Unloaded): 6.68 × 10^−10 m^2/sec; Diffusion coefficient of the component ([1]; B9A microemulsion, Unloaded): 5.96 × 10^−10 m^2/sec; Diffusion coefficient of the component [1, 5]: 3.24 × 10^−10 m^2/sec; Diffusion coefficient of the component [1, 7]: 4.96 × 10^−10 m^2/sec; Diffusion coefficient of the component [1, 6]: 4.82 × 10^−10 m^2/sec; Diffusion coefficient of the component [1, 8]: 5.43 × 10^−10 m^2/sec
8 | CC(C)(C)c1cc(O)ccc1O [TBHQ] | – | – | – | – | – | – | – | Appearance of the system loaded with the specie [2]: classic milky emulsion
9 | O [Water, water] | – | – | – | – | – | 1.37 × 10^−9 m^2/sec | 1.62 × 10^−9 m^2/sec | Diffusion coefficient of the component ([1]; B6A microemulsion, Unloaded): 1.76 × 10^−9 m^2/sec; Diffusion coefficient of the component ([1]; B9A microemulsion, Unloaded): 1.52 × 10^−9 m^2/sec; Diffusion coefficient of the component [1, 5]: 1.12 × 10^−9 m^2/sec; Diffusion coefficient of the component [1, 7]: 1.86 × 10^−9 m^2/sec; Diffusion coefficient of the component [1, 6]: 1.24 × 10^−9 m^2/sec; Diffusion coefficient of the component [1, 8]: 1.91 × 10^−9 m^2/sec
10 | CC(C)c1ccc(O)c(C(C)C)c1 [drawing 3] | 96.6 ×10^−11 m^2/sec | 26.3 ×10^−11 m^2/sec | 73.6 ×10^−11 m^2/sec | 1.63 ×10^−11 m^2/sec | 1.75 ×10^−11 m^2/sec | – | – | –
11 | COc1ccc(O)c(C(C)(C)C)c1 [drawing 4] | 91.2 ×10^−11 m^2/sec | 24.5 ×10^−11 m^2/sec | 78.3 ×10^−11 m^2/sec | 1.75 ×10^−11 m^2/sec | 1.78 ×10^−11 m^2/sec | – | – | –
12 | Cc1cc(C(C)(C)C)c(O)c(C(C)(C)C)c1 [drawing 5] | 98.2 ×10^−11 m^2/sec | 24.3 ×10^−11 m^2/sec | 79.1 ×10^−11 m^2/sec | 1.75 ×10^−11 m^2/sec | 1.58 ×10^−11 m^2/sec | – | – | –
13 | polyethylene glycol 15-hydroxystearate [Solutol] | – | – | – | – | – | 1.62 × 10^−11 m^2/sec | 1.50 × 10^−11 m^2/sec | Diffusion coefficient of the component ([1]; B6A microemulsion, Unloaded): 1.45 × 10^−11 m^2/sec; Diffusion coefficient of the component ([1]; B9A microemulsion, Unloaded): 1.94 × 10^−11 m^2/sec
14 | polysorbate 60 [Tween 60] | – | – | – | – | – | – | – | Diffusion coefficient of the component [1, 5]: 1.63 × 10^−11 m^2/sec; Diffusion coefficient of the component [1, 7]: 0.92 × 10^−11 m^2/sec
15 | polysorbate 80 [Tween 80] | – | – | – | – | – | – | – | Diffusion coefficient of the component [1, 6]: 2.08 × 10^−11 m^2/sec; Diffusion coefficient of the component [1, 8]: 1.73 × 10^−11 m^2/sec
